According to PubChem BioAssay (NCI):
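Values below derive from 48-hour exposures of cells grown in 96-well plates, with endpoints linearly interpolated between the two concentrations bracketing the appropriate inhibition level. TGI: concentration producing complete growth inhibition.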

Legend:
Test in all cases: DTP human tumour cell line panel, 48 h
DLD-1 colon = system: DLD-1 colon
DMS 114 small cell lung = system: DMS 114 small cell lung
LOX IMVI melanoma = system: LOX IMVI melanoma
LXFL 529 NSCLC = system: LXFL 529 NSCLC
M19-MEL melanoma = system: M19-MEL melanoma
NCI-H226 lung = system: NCI-H226 lung
NCI-H522 lung = system: NCI-H522 lung
SF-295 CNS = system: SF-295 CNS
SK-OV-3 ovarian = system: SK-OV-3 ovarian
SNB-78 CNS = system: SNB-78 CNS
SK-MEL-2 melanoma = system: SK-MEL-2 melanoma
HOP-18 NSCLC = system: HOP-18 NSCLC

Row | Structure (SMILES) | TGI (DLD-1 colon) [µM] | TGI (DMS 114 small cell lung) [µM] | TGI (LOX IMVI melanoma) [µM] | TGI (LXFL 529 NSCLC) [µM] | TGI (M19-MEL melanoma) [µM] | TGI (NCI-H226 lung) [µM] | TGI (NCI-H522 lung) [µM] | TGI (SF-295 CNS) [µM] | TGI (SK-OV-3 ovarian) [µM] | TGI (SNB-78 CNS) [µM] | TGI (SK-MEL-2 melanoma) [µM] | TGI (HOP-18 NSCLC) [µM]
1 | CC(C)(C)NN=C1C(C)(C)C(=NNC(C)(C)C)C1(C)C | > 100 | > 100 | > 100 | > 100 | > 100 | > 100 | > 100 | > 100 | > 100 | > 100 |  | 
2 | COC1=CC(=O)[C@H]2[C@H](C)C(c3ccccc3)[C@@]2(C)C1=O (some centres undefined) | > 100 |  | > 100 | > 100 | > 100 |  | > 100 | > 100 | > 100 | > 100 | > 100 | 
3 | COc1cccc(NC(=S)Nn2c(C)nc3ccccc3c2=O)c1 | > 100 | > 100 | > 100 | > 100 | > 100 | > 100 | > 100 | > 100 | > 100 |  | > 100 | > 100
4 | CCCn1c(SCC)c2ccccc2c1-c1nc(F)nc(F)n1 |  | > 100 | > 100 | > 100 | > 100 | > 100 | > 100 | > 100 |  | > 100 | > 100 | 
5 | CC(C)NC(=O)CN1CCN(C2=CC(=O)c3c(O)ccc(O)c3C2=O)CC1 |  |  | 19.6 |  |  | > 68.8 | 34.5 | 32.6 | 77.1 |  | 34.3 | 
6 | CCOC(=O)CCC(NC(=O)c1ccc(Oc2nc3ccc(C(F)(F)F)cc3nc2-c2ccccc2)cc1)C(=O)OCC (centres undefined) |  |  | > 100 |  |  | 17.6 | > 100 | > 71.6 | 37.9 |  | > 65.8 | 
7 | S=C(N/N=C(/c1ccccc1)c1ccccn1)Nc1ccccc1Cl |  |  | 23.3 |  |  | 2.67 | 1.89 | 7.29 | 13 |  | 1.8 | 
8 | CC(C)(C)N(Cc1ccc2c(c1)OCO2)C(=O)/C=C\S(=O)c1ccccc1 (centres undefined) |  |  | 7.51 |  |  | 11.2 | 2.14 | 22.9 | 9.38 |  | 9.11 | 
9 | N#Cc1c(-c2ccco2)cc(-c2ccc(NCc3nc4ccccc4[nH]3)cc2)nc1N | > 100 |  | 32.7 | 42 | 63.4 |  | 55.5 | 52.3 | > 100 |  | 40.3 | 77.9
10 | COc1ccc2nc3cccc([N+](=O)[O-])c3c(NCCO)c2c1 |  |  | 0.00494 |  |  | 0.176 | 0.043 | 1.03 | 0.752 |  | 0.0368 | 
11 | O=C(O)C1CCCN1Cc1cc2ccccc2c2ccccc12 (centres undefined) |  |  | > 100 |  |  | > 100 | > 100 | > 100 | > 100 |  | > 100 | 
12 | CN(C)CCNc1ccc2c(=O)n(CCN(C)C)c(=O)n3c4ccc([N+](=O)[O-])cc4c(=O)c1c23 |  |  | 1.1 |  |  | 4.01 | 0.263 | 2.31 | 6.72 |  | 1.31 | 
13 | NC(=O)N1N=C2c3ccccc3CC[C@@H]2C1c1ccccc1 (some centres undefined) | > 100 | > 100 | > 100 | > 100 | > 100 | > 100 | > 100 | > 100 | > 100 | > 100 | > 100 | 
14 | O=c1cc(N2CCOCC2)[nH]c(=O)n1-c1cccc(C(F)(F)F)c1 |  |  | > 100 |  |  | > 100 | > 100 | > 100 | > 100 |  | > 100 | 
15 | Clc1ccc(Oc2ccc(N=Cc3ccc(Cl)cc3Cl)cc2Cl)cc1 |  |  | > 100 |  |  | > 100 | 92 | > 100 | > 100 |  | > 100 | 
16 | Cc1ccc(-c2c(C#N)c(S)n(NS(=O)(=O)c3ccc(C)cc3)c(=O)c2C#N)cc1 |  |  | > 100 |  |  | 39.6 | 48.1 | 51.3 | > 100 |  | 62.2 | 
17 | CSc1nc(-c2cc3c(c(SC)n2)CCCCC3)cc2c1CCCCC2 |  |  | > 100 |  |  | > 100 | 90.2 | > 100 | > 100 |  | > 100 | 
18 | O=C1/C(=C\c2cccc(Oc3ccccc3)c2)S(=O)(=O)C(c2ccccc2)N1c1ccc(Cl)cc1 (centres undefined) |  |  | 27.8 |  |  | > 100 | 29.5 | 41.2 | > 100 |  | 34.5 | 
19 | COc1ccc(N2C(=O)C3ON(C(C(N)=O)c4ccccc4)C(c4ccc(-c5ccccc5)cc4)C3C2=O)cc1 (centres undefined) |  |  | > 50 |  |  | > 50 | > 50 | > 50 | > 50 |  | > 50 | 
20 | O=C/C(=C(/Br)I)c1ccccc1 |  |  | 10.9 |  |  | 26 | 3.41 | 13.9 | 23.2 |  | 13.5 | 
21 | N#Cc1c(-c2ccc([N+](=O)[O-])cc2)cc(-c2ccc(Nc3ccnc4cc(C(F)(F)F)ccc34)cc2)nc1N |  |  | > 63.3 |  |  | > 70.1 | > 100 | 37.6 | > 71.6 |  | > 59.7 | 
